# Read-outs that look alike come from different tables or passages of the source.
# Assay: Dissolution of monomer components in mesitylene to prepare a coating liquid
# Assay type: physicochemical
# Description: In 100 g of mesitylene were dissolved 2.48 g (8 mmol) of trimethyl ester of 1,3,5-adamantanetricarboxylic acid prepared in Example 1 and 6.42 g (12 mmol) of 3,3′-diaminobenzidinetetracyclohexanoimine [N,N′,N″,N′″-tetracyclohexylidene-3,4,3′,4′-biphenyltetramine] prepared in Preparation Example 1 at room temperature in a nitrogen atmosphere, to yield a coating liquid having a monomer concentration of 8.2% by weight. After filtrating through a filter with a pore size of 0.1 μm, the coating liquid was applied to an 8-inch silicon wafer by spin coating. This was heated at 300° C. in a nitrogen atmosphere for 30 minutes and was then heated at 400° C. for further 30 minutes, to form a film. The infrared absorption spectrum of the resulting polymer film was determined. The result is shown in FIG. 1, verifying that the target crosslinked polybenzazole film was formed.
# A coating liquid was prepared by the procedure of Example • 7, except using equal amounts of • 1,3,5-adamantanetricarboxylic acid and • 3,3′-diaminobenzidine instead of trimethyl ester of • 1,3,5-adamantanetricarboxylic acid and • N,N′,N″,N′″-tetracyclohexylidene-3,4,3′,4′-biphenyltetramine, respectively. […] The infrared absorption spectrum of the resulting polymer film was determined, verifying that the target crosslinked polybenzazole film was formed.
SMILES,solubility in the solvent (mesitylene),"solubility in the solvent (mesitylene) (procedure of Example 7: 8 mmol acid and 12 mmol amine together in 100 g mesitylene, room temperature, nitrogen atmosphere)"
"O=C(O)C12CC3CC(C(=O)O)(C1)CC(C(=O)O)(C3)C2 [1,3,5-adamantanetricarboxylic acid]",not sufficiently dissolved,–
"Nc1ccc(-c2ccc(N)c(N)c2)cc1N [3,3′-diaminobenzidine]",–,not sufficiently dissolved

# From US7102027B2, “Adamantanetricarboxylic acid derivatives” (Daicel Chemical Industries, Ltd., priority 2003, dated 2006)
